# Experimental data: patent US20070054353A1, “Nuclear receptor transcriptional corepressor and uses thereof” (priority 2002, published 2007)
# Legend:
# HDAC6 = test: ERα-dependent CAT reporter with LCoR and HDAC6 cotransfection in MCF-7 cells; type: cell-based, human; details: estradiol 10 nM, TSA 500 nM, trapoxin 50 nM
# Method: All cells were cultured under the recommended conditions. For immunocytochemistry, COS-7 cells grown on collagen IV-treated microscope slides in 6-well plates in DMEM, supplemented with 10% FBS were transfected in medium without serum with 12.5 μl of lipofectamine 2000 (Invitrogen, Burlington, Ont.) containing 1 μg each of pSG5/LCoR and HA-Flag-HDAC6/pcDNA3. Medium was replaced 24 h after transfection and cells were prepared for immunocytochemistry after 48 h as described below. For immunoprecipitation of tagged proteins, MCF-7 cells in 100 mm dishes were transfected with 10 μl of lipofectamine containing 10 μg of pSG5 vectors containing Flag-LCoR, Flag-m1, Flag-m2 or Flag-m1+2. For analysis of the effects of HDACs 3 or 6 on LCoR corepression, COS-7 cells (60-70% confluent) grown in DMEM without phenol red, supplemented with 10% FBS on 6-well plates were transfected in medium without serum with lipofectamine 2000 (Invitrogen, Burlington, Ontario, Canada) with 100 ng of ERα expression vectors as indicated, 300 ng of LCoR/pSG5, 300 ng of HA-HDAC3/pCDNA3.1 or […], 250 ng of ERE3-TATA-CAT reporter plasmid, 250 ng of internal control vector pCMV-βgal, and pBluescript carrier DNA to 4 μg. Medium was replaced 18 hr after transfection by a medium containing charcoal-stripped serum and ligand (10 nM) for 30 hr, as indicated. […]
# GR = biological target: T1, GR (Homo sapiens, UniProt P04150); test: Transient transfection luciferase reporter, GR transactivation in COS-7 cells; type: cell-based; details: TSA 3 μM, COS-7 cells
# T1 construct: expressed in transfected cells; host or cells: COS-7
# T1 sequence (P04150 1-777): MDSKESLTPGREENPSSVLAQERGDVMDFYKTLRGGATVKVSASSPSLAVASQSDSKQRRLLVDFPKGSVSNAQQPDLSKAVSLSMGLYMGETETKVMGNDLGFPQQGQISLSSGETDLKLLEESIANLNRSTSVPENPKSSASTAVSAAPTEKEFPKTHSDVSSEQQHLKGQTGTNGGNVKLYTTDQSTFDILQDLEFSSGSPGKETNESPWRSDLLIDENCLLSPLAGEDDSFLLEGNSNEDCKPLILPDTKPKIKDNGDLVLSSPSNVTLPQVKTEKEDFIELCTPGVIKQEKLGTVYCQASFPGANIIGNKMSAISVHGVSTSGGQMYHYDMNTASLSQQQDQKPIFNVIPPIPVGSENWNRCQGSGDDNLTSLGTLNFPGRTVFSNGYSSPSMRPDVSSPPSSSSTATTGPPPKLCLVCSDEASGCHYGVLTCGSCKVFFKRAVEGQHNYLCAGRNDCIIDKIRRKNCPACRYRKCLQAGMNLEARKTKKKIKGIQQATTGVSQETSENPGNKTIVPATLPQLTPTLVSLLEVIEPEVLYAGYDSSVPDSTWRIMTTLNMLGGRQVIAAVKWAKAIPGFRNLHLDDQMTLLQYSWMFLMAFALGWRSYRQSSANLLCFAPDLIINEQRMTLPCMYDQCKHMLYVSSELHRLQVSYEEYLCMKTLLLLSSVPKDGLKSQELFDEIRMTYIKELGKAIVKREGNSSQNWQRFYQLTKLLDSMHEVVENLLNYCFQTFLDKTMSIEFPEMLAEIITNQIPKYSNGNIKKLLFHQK
# Method: (§1) All cell lines were cultured under the recommended conditions. COS-7 cells grown in […] in DMEM without phenol red, supplemented with 10% FBS were transfected in medium without serum with lipofectamine 2000 (Invitrogen, Burlington, Ont.) with 100 ng of nuclear receptor expression vectors as indicated, 200 ng of TIF-2 or TIF-2.1, as indicated, 250 ng of reporter plasmid, 250 ng of infemal control vector pCMV-βgal, and various concentrations of LCoR/pSG5 or LCoR-LSKAA/pSG5 expression vectors and pSG5 carrier. Medium was replaced 24 h after transfection by a medium containing charcoal-stripped serum and ligand (100 nM) and TSA (3 μM) for 18 h, as indicated. Cells were harvested in 200 […] of reporter lysis buffer (Promega).
# (§2) COS-7 cells were cotransfected with expression vectors for ERα HEG0 (A and C) or GR (D) or PR (F) or VDR (H), ERE3-TATA-pXP2 (A and C), GRE5/pXP2 (D and F) or VDRE3tk/pXP2 (H) luciferase reporter vectors, pCMV-β-gal as internal control, and LCoR/pSG5 or LSKAA/pSG5 expression vectors as indicated. Cells were treated with 10^−7M of hormones (solid bars) or vehicle (open bars). Normalized luciferase activities (RLU) are the means±SEM from at least 3 experiments. […] Cells were transfected as in FIG. 5A with LCoR, TIF-2 or TIF2.1 as indicated. […]
# VDR = biological target: T2, VDR (Homo sapiens, UniProt P11473); test: Transient transfection luciferase reporter, VDR transactivation in COS-7 cells; type: cell-based; details: TSA 3 μM, COS-7 cells
# T2 construct: expressed in transfected cells; host or cells: COS-7
# T2 sequence (P11473 1-427): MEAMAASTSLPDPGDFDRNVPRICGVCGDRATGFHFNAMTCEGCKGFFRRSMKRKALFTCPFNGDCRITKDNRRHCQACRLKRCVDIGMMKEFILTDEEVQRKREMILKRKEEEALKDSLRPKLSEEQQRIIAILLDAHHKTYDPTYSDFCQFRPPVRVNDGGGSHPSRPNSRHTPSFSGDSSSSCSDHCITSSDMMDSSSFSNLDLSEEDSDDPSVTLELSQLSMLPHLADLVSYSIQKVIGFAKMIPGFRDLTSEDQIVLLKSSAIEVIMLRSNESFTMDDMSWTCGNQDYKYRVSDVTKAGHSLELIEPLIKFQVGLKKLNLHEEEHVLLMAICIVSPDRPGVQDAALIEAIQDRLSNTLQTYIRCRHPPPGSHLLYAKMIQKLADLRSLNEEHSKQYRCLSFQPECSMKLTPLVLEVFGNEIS
# Method: as §1, §2
structure (smiles),measurement,setting,value
"CC(/C=C/C(=O)NO)=C\[C@@H](C)C(=O)c1ccc(N(C)C)cc1 [TSA, trichostatin A]",effect on HDAC6 repression / enhancement of LCoR corepression of ERα transactivation,HDAC6,abolished
same,effect on LCoR-dependent repression of GR function,GR,completely abolished
same,effect on LCoR repression of VDR function,VDR,little or no effect
